# Tested on: Crude diglycosidase
# Test: Examination of temperature in the conversion into isoflavone aglycons by diglycosidase using soybean materials
# Type: biochemical, Penicillium multicolor IAM7153
# Parameters: Decomposition efficiency of glycitin family in roasted soy flour / Decomposition efficiency of daidzin family in roasted soy flour / Decomposition efficiency of genistin family in soymilk / Decomposition efficiency of daidzin family in soymilk / Decomposition efficiency of glycitin family in defatted soybean / Decomposition efficiency of daidzin family in defatted soybean: concentration or dose not given beside the values
# Settings: for maximum isolation of aglycons: reaction at 55° C. for 6 hours
# Procedure: Into 400 μL of 20 mM acetate buffer of pH 4.0 was suspended 50 mg of each of various soybean materials (roasted soy flour (manufactured by Fuji Shokuryo K.K.), soymilk (manufactured by Gitoh Shokuhin K.K.), defatted soybean (manufactured by Fuji Seiyu K.K.), concentrated soybean protein (manufactured by Fuji Seiyu K.K.)), whereby a substrate solution was prepared. Crude diglycosidase was diluted with 20 mM acetate buffer of pH 4.0 to be the glycosidase activity of 1.88 AU/mL. Fifty μL of the enzyme solution was mixed with the substrate solution and the whole was reacted at 80, 65, 55, 45, 37, or 30° C. at the total volume of 500 μL. To the reaction mixture was added 700 μL of ethanol after 0, 1, 3, and 6 hours of the reaction. After stirring and ultrasonication, the mixture was subjected to centrifugal separation at 15,000 rpm and 4° C. for 10 minutes. The supernatant was filtered through a filter and the existence of isoflavone glycosides and aglycon isoflavones contained in the reaction mixture was detected by HLPC.
# [1] = 30° C., heat treatment of enzyme no, reaction time 0 h
# [2] = 30° C., heat treatment of enzyme no, reaction time 1 h
# [3] = 30° C., heat treatment of enzyme no, reaction time 3 h
# [4] = 30° C., heat treatment of enzyme no, reaction time 6 h
# [5] = 30° C., heat treatment of enzyme yes, reaction time 6 h
# [6] = 45° C., heat treatment of enzyme no, reaction time 0 h
# [7] = 45° C., heat treatment of enzyme no, reaction time 1 h
# [8] = 45° C., heat treatment of enzyme no, reaction time 3 h
# [9] = 45° C., heat treatment of enzyme no, reaction time 6 h
# [10] = 45° C., heat treatment of enzyme yes, reaction time 6 h
# [11] = 45 °C, heat treatment of enzyme: no, 0 h
# [12] = 45 °C, heat treatment of enzyme: no, 1 h
# [13] = 45 °C, heat treatment of enzyme: no, 3 h
# [14] = 45 °C, heat treatment of enzyme: no, 6 h
# [15] = 45 °C, heat treatment of enzyme: yes, 6 h
# [16] = 55° C., heat treatment of enzyme no, reaction time 0 h
# [17] = 55° C., heat treatment of enzyme no, reaction time 1 h
# [18] = 55° C., heat treatment of enzyme no, reaction time 3 h
# [19] = 55° C., heat treatment of enzyme no, reaction time 6 h
# [20] = 55° C., heat treatment of enzyme yes, reaction time 6 h
# [21] = 55 °C, heat treatment of enzyme: no, 0 h
# [22] = 55 °C, heat treatment of enzyme: no, 1 h
# [23] = 55 °C, heat treatment of enzyme: no, 3 h
# [24] = 55 °C, heat treatment of enzyme: no, 6 h
# [25] = 55 °C, heat treatment of enzyme: yes, 6 h
# [26] = 65° C., heat treatment of enzyme no, reaction time 0 h
# [27] = 65° C., heat treatment of enzyme no, reaction time 1 h
# [28] = 65° C., heat treatment of enzyme no, reaction time 3 h
# [29] = 65° C., heat treatment of enzyme no, reaction time 6 h
# [30] = 65° C., heat treatment of enzyme yes, reaction time 6 h
# [31] = 65 °C, heat treatment of enzyme: no, 0 h
# [32] = 65 °C, heat treatment of enzyme: no, 1 h
# [33] = 65 °C, heat treatment of enzyme: no, 3 h
# [34] = 65 °C, heat treatment of enzyme: no, 6 h
# [35] = 65 °C, heat treatment of enzyme: yes, 6 h
# [36] = 80° C., heat treatment of enzyme no, reaction time 0 h
# [37] = 80° C., heat treatment of enzyme no, reaction time 1 h
# [38] = 80° C., heat treatment of enzyme no, reaction time 3 h
# [39] = 80° C., heat treatment of enzyme no, reaction time 6 h
# [40] = 80° C., heat treatment of enzyme yes, reaction time 6 h
# [41] = 80 °C, heat treatment of enzyme: no, 0 h
# [42] = 80 °C, heat treatment of enzyme: no, 1 h
# [43] = 80 °C, heat treatment of enzyme: no, 3 h
# [44] = 80 °C, heat treatment of enzyme: no, 6 h
# [45] = 80 °C, heat treatment of enzyme: yes, 6 h
smiles,measurement,setting,value
O=c1c(-c2ccc(O)cc2)coc2cc(O)ccc12 [daidzein],Decomposition efficiency of daidzin family in concentrated soybean protein,[1],3.0%
same,Decomposition efficiency of daidzin family in defatted soybean,[1],14.5%
same,Decomposition efficiency of daidzin family in concentrated soybean protein,[2],26.2%
same,Decomposition efficiency of daidzin family in defatted soybean,[2],53.4%
same,Decomposition efficiency of daidzin family in concentrated soybean protein,[3],42.7%
same,Decomposition efficiency of daidzin family in defatted soybean,[3],54.8%
same,Decomposition efficiency of daidzin family in concentrated soybean protein,[4],52.5%
same,Decomposition efficiency of daidzin family in defatted soybean,[4],54.9%
same,Decomposition efficiency of daidzin family in concentrated soybean protein,[5],3.2%
same,Decomposition efficiency of daidzin family in defatted soybean,[5],54.6%
same,Decomposition efficiency of daidzin family in soymilk,"30 °C, heat treatment of enzyme: no, 0 h",9.1%
same,Decomposition efficiency of daidzin family in soymilk,"30 °C, heat treatment of enzyme: no, 1 h",41.8%
same,Decomposition efficiency of daidzin family in soymilk,"30 °C, heat treatment of enzyme: no, 3 h",47.2%
same,Decomposition efficiency of daidzin family in soymilk,"30 °C, heat treatment of enzyme: no, 6 h",53.8%
same,Decomposition efficiency of daidzin family in soymilk,"30 °C, heat treatment of enzyme: yes, 6 h",9.1%
same,Decomposition efficiency of daidzin family in roasted soy flour,"35 °C, heat treatment of enzyme: no, 0 h",3.6%
same,Decomposition efficiency of daidzin family in roasted soy flour,"35 °C, heat treatment of enzyme: no, 1 h",41.4%
same,Decomposition efficiency of daidzin family in roasted soy flour,"35 °C, heat treatment of enzyme: no, 3 h",54.7%
same,Decomposition efficiency of daidzin family in roasted soy flour,"35 °C, heat treatment of enzyme: no, 6 h",60.4%
same,Decomposition efficiency of daidzin family in roasted soy flour,"35 °C, heat treatment of enzyme: yes, 6 h",5.8%
same,Decomposition efficiency of daidzin family in concentrated soybean protein,[6],3.1%
same,Decomposition efficiency of daidzin family in defatted soybean,[6],16.2%
same,Decomposition efficiency of daidzin family in concentrated soybean protein,[7],45.3%
same,Decomposition efficiency of daidzin family in defatted soybean,[7],54.5%
same,Decomposition efficiency of daidzin family in concentrated soybean protein,[8],48.8%
same,Decomposition efficiency of daidzin family in defatted soybean,[8],56.3%
same,Decomposition efficiency of daidzin family in concentrated soybean protein,[9],55.5%
same,Decomposition efficiency of daidzin family in defatted soybean,[9],58.3%
same,Decomposition efficiency of daidzin family in concentrated soybean protein,[10],5.7%
same,Decomposition efficiency of daidzin family in defatted soybean,[10],55.7%
same,Decomposition efficiency of daidzin family in roasted soy flour,[11],3.7%
same,Decomposition efficiency of daidzin family in soymilk,[11],8.9%
same,Decomposition efficiency of daidzin family in roasted soy flour,[12],53.5%
same,Decomposition efficiency of daidzin family in soymilk,[12],43.0%
same,Decomposition efficiency of daidzin family in roasted soy flour,[13],59.4%
same,Decomposition efficiency of daidzin family in soymilk,[13],52.0%
same,Decomposition efficiency of daidzin family in roasted soy flour,[14],66.2%
same,Decomposition efficiency of daidzin family in soymilk,[14],62.8%
same,Decomposition efficiency of daidzin family in roasted soy flour,[15],8.1%
same,Decomposition efficiency of daidzin family in soymilk,[15],8.2%
same,Decomposition efficiency of daidzin family in concentrated soybean protein,[16],3.0%
same,Decomposition efficiency of daidzin family in defatted soybean,[16],14.5%
same,Decomposition efficiency of daidzin family in concentrated soybean protein,[17],55.0%
same,Decomposition efficiency of daidzin family in defatted soybean,[17],55.0%
same,Decomposition efficiency of daidzin family in concentrated soybean protein,[18],59.4%
same,Decomposition efficiency of daidzin family in defatted soybean,[18],57.3%
same,Decomposition efficiency of daidzin family in concentrated soybean protein,[19],62.3%
same,Decomposition efficiency of daidzin family in defatted soybean,[19],59.7%
same,Decomposition efficiency of daidzin family in concentrated soybean protein,[20],3.2%
same,Decomposition efficiency of daidzin family in defatted soybean,[20],55.9%
same,Decomposition efficiency of daidzin family in roasted soy flour,[21],3.7%
same,Decomposition efficiency of daidzin family in soymilk,[21],8.6%
same,Decomposition efficiency of daidzin family in roasted soy flour,[22],57.2%
same,Decomposition efficiency of daidzin family in soymilk,[22],49.1%
same,Decomposition efficiency of daidzin family in roasted soy flour,[23],67.5%
same,Decomposition efficiency of daidzin family in soymilk,[23],58.9%
same,Decomposition efficiency of daidzin family in roasted soy flour,[24],73.3%
same,Decomposition efficiency of daidzin family in soymilk,[24],68.9%
same,Decomposition efficiency of daidzin family in roasted soy flour,[25],5.3%
same,Decomposition efficiency of daidzin family in soymilk,[25],8.6%
same,Decomposition efficiency of daidzin family in concentrated soybean protein,[26],3.0%
same,Decomposition efficiency of daidzin family in defatted soybean,[26],16.2%
same,Decomposition efficiency of daidzin family in concentrated soybean protein,[27],53.9%
same,Decomposition efficiency of daidzin family in defatted soybean,[27],55.3%
same,Decomposition efficiency of daidzin family in concentrated soybean protein,[28],55.4%
same,Decomposition efficiency of daidzin family in defatted soybean,[28],58.4%
same,Decomposition efficiency of daidzin family in concentrated soybean protein,[29],56.7%
same,Decomposition efficiency of daidzin family in defatted soybean,[29],62.7%
same,Decomposition efficiency of daidzin family in concentrated soybean protein,[30],3.2%
same,Decomposition efficiency of daidzin family in defatted soybean,[30],32.0%
same,Decomposition efficiency of daidzin family in roasted soy flour,[31],3.6%
same,Decomposition efficiency of daidzin family in soymilk,[31],9.1%
same,Decomposition efficiency of daidzin family in roasted soy flour,[32],56.3%
same,Decomposition efficiency of daidzin family in soymilk,[32],48.3%
same,Decomposition efficiency of daidzin family in roasted soy flour,[33],59.8%
same,Decomposition efficiency of daidzin family in soymilk,[33],56.1%
same,Decomposition efficiency of daidzin family in roasted soy flour,[34],62.2%
same,Decomposition efficiency of daidzin family in soymilk,[34],64.7%
same,Decomposition efficiency of daidzin family in roasted soy flour,[35],4.2%
same,Decomposition efficiency of daidzin family in soymilk,[35],8.8%
same,Decomposition efficiency of daidzin family in concentrated soybean protein,[36],3.1%
same,Decomposition efficiency of daidzin family in defatted soybean,[36],16.2%
same,Decomposition efficiency of daidzin family in concentrated soybean protein,[37],31.9%
same,Decomposition efficiency of daidzin family in defatted soybean,[37],52.4%
same,Decomposition efficiency of daidzin family in concentrated soybean protein,[38],32.0%
same,Decomposition efficiency of daidzin family in defatted soybean,[38],52.0%
same,Decomposition efficiency of daidzin family in concentrated soybean protein,[39],30.7%
same,Decomposition efficiency of daidzin family in defatted soybean,[39],51.7%
same,Decomposition efficiency of daidzin family in concentrated soybean protein,[40],3.2%
same,Decomposition efficiency of daidzin family in defatted soybean,[40],21.7%
same,Decomposition efficiency of daidzin family in roasted soy flour,[41],3.7%
same,Decomposition efficiency of daidzin family in soymilk,[41],8.9%
same,Decomposition efficiency of daidzin family in roasted soy flour,[42],47.7%
same,Decomposition efficiency of daidzin family in soymilk,[42],40.3%
same,Decomposition efficiency of daidzin family in roasted soy flour,[43],47.7%
same,Decomposition efficiency of daidzin family in soymilk,[43],39.7%
same,Decomposition efficiency of daidzin family in roasted soy flour,[44],40.8%
same,Decomposition efficiency of daidzin family in soymilk,[44],34.1%
same,Decomposition efficiency of daidzin family in roasted soy flour,[45],3.8%
same,Decomposition efficiency of daidzin family in soymilk,[45],8.8%
same,maximum isolation of aglycons,concentrated soybean protein,about 62%
same,maximum isolation of aglycons,defatted soybean,about 60%
same,maximum isolation of aglycons,soy flour,about 73%
same,maximum isolation of aglycons,soymilk,about 70%
